For data set [1], the system named is CaOV-3 human ovarian cancer cell line. The data set is described as follows: Cell viability, CaOV-3 cells. To be noted: Caov-3, read-out: decrease in viability / inhibition. An excerpt:
For the determination of relative number of viable cells before and after treatments, in most cases the MTT assay was used. This calorimetric assay is based on the ability of living cells, but not dead cells, to reduce 3-(4, 5-dimethyl thiazol-2-yl)-2, 5-diphenyltetrazolium bromide [Carmichael, J, De Graff, W. G., Gazdar, A. F., Minna, J. D. and Mitchell, J. B. (1987), “Evaluation oftetrazolium-based semiautomated calorimetric assay: Assessment of chemosensitivity testing,” Cancer Res., 47, 936-942]. For this assay, cells were plated in 96-well plates (10,000-30,000 cells in case of cultured cells, 100,000 cells in case of healthy lymphocytes, and 200,000 cells in case of chronic lymphocytic leukemia or non-Hodgkin lymphocytes) in the respective incubation media. After a 24-h resting period, the cells were treated with the test agents and then incubated (in CO2 incubator under humidified atmosphere) for 72 hours (final incubation volume, 150 μl). The MTT assay was performed both with the untreated and treated cell cultures at the conclusion of the incubation. Often, the MTT assay also was performed at the start of treatments to allow assessment of proliferation rates in the control and treated cell cultures. All data presented are the average of 4 incubations (in 4 separate wells) with the same cell population. […]

Data set [2] is described as follows: in vitro. To be noted: human, decrease of viability of healthy lymphocytes. From the text: For the determination of relative number of viable cells before and after treatments, in most cases the MTT assay was used. This calorimetric assay is based on the ability of living cells, but not dead cells, to reduce 3-(4, 5-dimethyl thiazol-2-yl)-2, 5-diphenyltetrazolium bromide [Carmichael, J, De Graff, W. G., Gazdar, A. F., Minna, J. D. and Mitchell, J. B. (1987), “Evaluation oftetrazolium-based semiautomated calorimetric assay: Assessment of chemosensitivity testing,” Cancer Res., 47, 936-942]. For this assay, cells were plated in 96-well plates (10,000-30,000 cells in case of cultured cells, 100,000 cells in case of healthy lymphocytes, and 200,000 cells in case of chronic lymphocytic leukemia or non-Hodgkin lymphocytes) in the respective incubation media. After a 24-h resting period, the cells were treated with the test agents and then incubated (in CO2 incubator under humidified atmosphere) for 72 hours (final incubation volume, 150 μl). The MTT assay was performed both with the untreated and treated cell cultures at the conclusion of the incubation. Often, the MTT assay also was performed at the start of treatments to allow assessment of proliferation rates in the control and treated cell cultures. All data presented are the average of 4 incubations (in 4 separate wells) with the same cell population.
Peripheral lymphocytes are known to be very sensitive to chemotherapy and this sensitivity often limits the dose of chemotherapy that can be employed. In this series of experiments, the combined effects of CCcompound104 alone or in combination with CCcompound26 or CCcompound3 were determined on the viability of peripheral lymphocytes to establish doses that reduce cell viability less than 50%. As in previous experiments, the treatments were performed for 72 hours.

On to `C=CC[N+](CC)(CC)CC/C=C1/c2ccccc2Sc2ccc(C)cc21.[Br-]` [CCcompound26, N,N-Diethyl-N-allyl-3-(2-methyl-9H-thioxanthen-9-ylidene)-propan-1-aminiumbromide], for which, in data set [1], the cytotoxicity at 12.5 µM is below 15% and the cytotoxicity at 25 µM was below 45%. Moreover, in data set [2], the cytotoxicity at 72 h, 50 μM stood at 100%. The cytotoxicity at 72 h, 1 μM in data set [2] (over 4 lymphocyte preparations) is 3 to 13%.
